Measured values published in US20230123334A1, “AMINO LIPID COMPOUND, PREPARATION METHOD THEREFOR, AND APPLICATION THEREOF” (SHENZHEN SHENXIN BIOTECHNOLOGY CO., LTD., priority 2020, published 2023).

System: HEK293 cells
Assay: Preliminary screening as mRNA vectors, EGFP mRNA transfection of HEK293 cells
Assay type: cell-based
Details: EGFP mRNA 50 ng per well, 96-well plates; percentage of GFP fluorescent cells relative to total number of cells (Hoechst)
How it was run: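 HEK293 cells in DMEM plus 10% FBS transfected in 96-well format with 50 ng EGFP mRNA per well; Lipofectamine2000 served as positive control. Read-out is the percentage of GFP-fluorescent cells among total cells, counted by Hoechst nuclear stain.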

SMILES | Absolute mRNA transfection efficiency in HEK293 cells
CCCCCCCCCCCCCCCCSc1nc(NCCCCCCC)nc(NCCN2CCCCC2)n1 [Compound D4S16N7] | 0.8%
CCCCCCCCCCCCCCCNc1nc(NCCCN(C)C)nc(SCCCCCCCCC)n1 [Compound D6S9N15] | 36.5%
CCCCCCCCCCCCN(CCCCCCCCCCCC)c1nc(NCCN2CCOCC2)nc(SCCCCCCCCCC)n1 [D2S10^2N12] | 0.0%
CCCCCCCCCCCCCCCCSc1nc(NCCCCCCCCC)nc(NCCCN2CCOCC2)n1 [Compound D8S16N9] | 2.1%
CCCCCCCCCCCCNc1nc(NCCCN2CCOCC2)nc(SCCCCCCCC)n1 [Compound D8S8N12] | 3.8%
CCCCCCCCSc1nc(NCCN2CCOCC2)nc(SCCCCCCCC)n1 [Compound D2S8S8] | 54.5%
CCCCCCCCCNc1nc(NCCCN2CCOCC2)nc(SCCCCCCC)n1 [Compound D8S7N9] | 10.6%
CCCCCCCCNc1nc(NCCN(CC)CC)nc(SCCCCCC)n1 [Compound D7S6N8] | 3.5%
CCCCCCCCCCCCCCCNc1nc(NCC2CCN(C)CC2)nc(SCCCCCCCC)n1 [Compound D10S8N15] | 53.3%
CCCCCCCCCCCCCNc1nc(NCCN2CCCC2)nc(SCCCCCCC)n1 [Compound D3S7N13] | 19.1%
CCCCCCCCCCCCCCCCSc1nc(NCCCCCCCCCCCCC)nc(NCCN2CCN(C)CC2)n1 [Compound D5S16N13] | 0.7%
CCCCCCCCCCCCCCCCCCSc1nc(NCCN2CCCC2)nc(N(CCCCCCCCCCCC)CCCCCCCCCCCC)n1 [D3S18^2N12] | 0.1%
CCCCCCCCCSc1nc(NCCN2CCN(C)CC2)nc(SCCCCCC)n1 [Compound D5S6S9] | 8.3%
CCCCCCCCCCCCNc1nc(NCCCN2CCN(C)CC2)nc(SCCCCCCCCCCCC)n1 [Compound D9S12N12] | 0.9%
CCCCCCCCCCSc1nc(NCCCCCCC)nc(NCCN2CCCC2)n1 [Compound D3S10N7] | 1.4%
CCCCCCCCCCCCNc1nc(NCCN2CCOCC2)nc(SCCCCCCCCCCCC)n1 [Compound D2S12N12] | 0.0%
CCCCCCCCCCCCCCCCCCNc1nc(NCCN2CCCCC2)nc(SCCCCCCCCC)n1 [Compound D4S9N18] | 8.3%
CCCCCCCCCCCCCCSc1nc(NCCCCCCCCCCCC)nc(NCCCN2CCN(C)CC2)n1 [Compound D9S14N12] | 8.0%
CCCCCCCCNc1nc(NCCN2CCOCC2)nc(SCCCCCCCC)n1 [Compound D2S8N8] | 0.9%
CCCCCCCCCCCCCCCCSc1nc(NCCCCCCCCCCCCC)nc(NCCN2CCCC2)n1 [Compound D3S16N13] | 0.4%
CCCCCCCCCCCCCCCCCCNc1nc(NCC2CCN(C)CC2)nc(SCCCCCCCC)n1 [Compound D10S8N18] | 20.1%
CCCCCCCCCNc1nc(NCCN(C)C)nc(SCCCCCCC)n1 [Compound D1S7N9] | 10.0%
CCCCCCCCCCCCCCCCCCNc1nc(NCCN2CCCCC2)nc(SCCCCCCC)n1 [Compound D4S7N18] | 7.9%
CCCCCCCCCCCCSc1nc(NCCN2CCCCC2)nc(SCCCCCC)n1 [Compound D4S6S12] | 0.2%
CCCCCCCCCCCCCCCCNc1nc(NCCN2CCOCC2)nc(SCCCCCC)n1 [Compound D2S6N16] | 2.2%
CCCCCCCSc1nc(NCC2CCN(C)CC2)nc(SCCCCCC)n1 [Compound D10S6S7] | 19.7%
CCCCCCCCCCCSc1nc(NCCCCCC)nc(NCCCN2CCOCC2)n1 [Compound D8S11N6] | 2.8%
